# Legend:
# [1] = test system: blood-sugar level of normal mice; assay: Effect of Sequoyitol on blood-sugar level of normal mice; assay type: in vivo, Kunming mice; conditions: Glibenclamide 50 mg/kg oral 7 days
# Protocol: 1. Experimental Method^[3] • 60 Mice were randomly divided into 5 groups, […] according to 0.1 ml/10 g of body weight, respectively, and the normal group was administrated with the same volum of the same volum of distilled water. These administrations were conducted for continuous 7 days. The blood-sugar levels were detected by glucose oxidase method.
# [2] = test system: mouse hyperglycemia induced by adrenalin; assay: Effect of Sequoyitol on mouse hyperglycemia induced by adrenalin; assay type: in vivo, Kunming mice; conditions: Glibenclamide 10 mg/kg oral 7 days
# Protocol: 1. Experimental Methods^[3] • 72 Mice were randomly divided into 6 groups, wherein 4 groups were orally administrated with 25, 50 and 100 mg/kg of Sequoyitol and 10 mg/kg of Glibenclamide according to 0,1 ml/10 g of body weight, respectively, and the normal group and modeling group were administrated with the same volum of distilled water. These administrations were conducted for continuous 7 days. The normal group was administrated with the same volum of physiological saline by injection, while other groups were administrated with 0.2 mg/kg of adrenalin by intra-abdominal injection. The blood-sugar levels were detected by glucose oxidase method after 30 minutes of administration. The livers of the mice were collected, and hepatic glycogen levels were detected by anthrone method.
# [3] = test system: mouse hyperglycemia induced by alloxan; assay: Effects of Sequoyitol on mouse hyperglycemia induced by alloxan; assay type: in vivo, Kunming mice; conditions: phenformine 75 mg/kg p.o. 7 days
# Protocol: 1. Experimental Methods^[1,2] • Among 60 mice, 10 mice were randomly selected as normal group, and the residual mice were administrated with 65 mg/kg alloxan by caudal vein injection, modeled according to the method of documents, and divided into 5 groups according to blood-sugar values, wherein 4 groups were perorally administrated with 25, 50 and 100 mg/kg of Sequoyitol and 75 mg/kg of phenformine according to 0.1 ml/10 g of body weight, respectively, and the normal group and modeling group were administrated with the same volum of distilled water, separately. These administrations were conducted for continuous 7 days. The blood-sugar levels were detected by glucose oxidase method. The pancreatic glands of the mice were soaked in 10% formalin, embedded with paraffin, sliced, and dyed with HE dye.
# [4] = test system: rat hyperglycemia induced by alloxan; assay: Effect of Sequoyitol on rat hyperglycemia induced by alloxan; assay type: in vivo, SD rats
# Protocol: 1. Experimental Methods^[5,6] • 5 Rats were randomly selected as normal group, the other 55 rats were fasted for 14-16 hours, administrated with 30 mg/kg of Pentobarbital by intra-abdominal injection. After paralyzed, the rats were administrated with 48 mg/kg of alloxan by vena femoralis injection, modeled according to methods of documents, and divided into 5 groups according to blood-sugar level, wherein each group had 11 rats, and 4 groups were orally administrated with 25, 50 and 100 mg/kg of Sequoyitol and 75 mg/kg of phenformine according to 1 ml/100 g of body weight, respectively, and the normal group and modeling group were administrated with the same volum of distilled water. These administrations were conducted for continuous 18 days. The fasting blood-sugar levels of the rats were separately measured at 6th and 12th day after the administration. At the 18th day, blood was collected from arteria femoralis, and the blood sugar level, insulin level, cholesterol content, triglyceride content, malonaldehyde content, and hepatocuprein activity of serum were measured; liver tissue was homogenated, and the malonaldehyde content, and hepatocuprein activity of liver tissue were measured; and pancreatic gland was soaked in 10% formalin, embedded with paraffin, sliced, and dyed with HE.
# [5] = test system: mouse hyperglycemia induced by Streptozocin; assay: Effect of Sequoyitol on mouse hyperglycemia induced by Streptozocin; assay type: in vivo, Kunming mice
# Protocol: 1. Experimental Methods^[7,8] • Among 66 mice, 10 mice were randomly selected as normal group, and the residual mice were administrated with 160 mg/kg Streptozocin by vena caudalis injection, modeled according to methods of documents, and divided into 5 groups according to blood-sugar level, wherein 4 groups were perorally administrated with 25, 50 and 100 mg/kg of Sequoyitol and 75 mg/kg of phenformine according to 0.1 ml/10 g of body weight, respectively, and the normal group and modeling group were administrated with the same volum of distilled water. These administrations were conducted for continuous 18 days. The blood-sugar levels of the mice were separately measured at 6th and 12th day after the administration. At the 18th day, blood was collected by excising eyeballs, serum was separated, and the blood sugar level, insulin level, cholesterol content, triglyceride content, malonaldehyde content, and hepatocuprein activity of serum were measured; liver tissue was homogenated, and the malonaldehyde content and hepatocuprein activity of liver tissue were measured; and pancreatic gland was soaked in 10% formalin, embedded with paraffin, sliced, and dyed with HE.
# [6] = test system: mouse hyperglycemia induced by glucose; assay: Effect of Sequoyitol on mouse hyperglycemia induced by glucose; assay type: in vivo, Kunming mice; conditions: phenformine 75 mg/kg oral 7 days; 30, 60, 90, 120 minutes after i.p. glucose
# Protocol: 1. Experimental Method^[4] • 72 Mice were randomly divided into 6 groups, […] according to 0.1 ml/10 g of body weight, respectively, and the normal group and modeling group were administrated with the same volum of distilled water. These administrations were conducted for continuous 7 days. The normal group was administrated with the same volum of physiological saline by injection, while other groups were administrated with […] of glucose by intra-abdominal injection. After 30, 60, 90 and 120 minutes of administration, bloods were collected from venous plexus behind fossa orbitalis, the serums were separated, and the blood-sugar levels were separately detected by glucose oxidase method.
# [7] = test system: mouse hyperglycemia induced by alloxan; assay: Time-effect relation of Sequoyitol to mouse hyperglycemia induced by alloxan; assay type: in vivo, Kunming mice; conditions: phenformine 75 mg/kg p.o. 7 days
# Protocol: 1. Experimental Methods^[1,2] • Alloxan was administrated to each of 30 mice by caudal vein injection with a dose of 65 mg/kg, and the mice were modeled according to the method of documents, divided into 3 groups according to blood-sugar values, […] according to […] of body weight, and the modeling group was administrated with the same volum of distilled water, separately. These administrations were conducted for continuous 7 days, and the mice were fasted for 2 hours before the last administration, and their blood-sugar levels were detected by glucose oxidase method at 1 2, 3 and 5 hours after the last administration.
# [8] = phenformine 75 mg/kg oral 18 days
# [9] = phenformine 75 mg/kg p.o. 18 days
smiles,measurement,setting,value
"COc1ccc(Cl)cc1C(=O)NCCc1ccc(S(=O)(=O)NC(=O)NC2CCCCC2)cc1 [Glibenclamide, reference compound]",blood-sugar level decreased compared to the normal group,[1],19.3 mg/dL
same,blood-sugar level decreased compared to the control group,[2]; 30 minutes after adrenalin 0.2 mg/kg i.p.,40.1 mg/dL
same,hepatic glycogen level increased compared to the control group,[2]; adrenalin model,1.28 mg/g of liver tissue
"[H]/N=C(/N)N/C(=N/[H])NCCc1ccccc1 [phenformine, reference compound]",blood-sugar level decreased compared to the control group,[3],152.8 mg/dL
same,number of pancreatic islands and number of islet cells (histopathologic examination) compared to the model group,[3],increased slightly
same,body weight of rats compared to the control group,[4]; phenformine 75 mg/kg oral,did not significantly change
same,activity of hepatocuprein in liver tissue compared to the control group,[4]; [8],did not significantly change
same,activity of hepatocuprein in serum compared to the control group,[4]; [8],did not significantly change
same,content of cholesterol in serum compared to the control group,[4]; [8],did not significantly change
same,content of malonaldehyde in liver tissue compared to the control group,[4]; [8],decreased slightly
same,content of malonaldehyde in serum compared to the control group,[4]; [8],decreased slightly
same,content of triglyceride in serum compared to the control group,[4]; [8],did not significantly change
same,serum insulin level compared to the control group,[4]; [8],increased
same,alloxan-induced hyperglycemia compared to the control group,"[4]; phenformine 75 mg/kg oral, since the 6th day",highly significantly alleviated
same,body weight of mice compared to the control group,[5]; phenformine 75 mg/kg p.o.,did not significantly change
same,activity of hepatocuprein in serum compared to the control group,[5]; [9],did not significantly change
same,content of cholesterol in serum compared to the control group,[5]; [9],did not significantly change
same,content of malonaldehyde in liver tissue compared to the control group,[5]; [9],did not significantly change
same,content of triglyceride in serum compared to the control group,[5]; [9],did not significantly change
same,hyalinization of interstitial small vessels (histopathologic examination),[5]; [9],not alleviated
same,number of pancreatic islands and number of cells in pancreatic islands (histopathologic examination),[5]; [9],slightly increased
same,serum insulin level compared to the control group,[5]; [9],increased
same,Streptozocin-induced hyperglycemia compared to the control group,"[5]; phenformine 75 mg/kg p.o., 12th day",significantly alleviated
same,glucose-induced hyperglycemia compared to the control group,[6],highly significantly alleviated
same,blood-sugar level decreased compared to the control group,[7]; 1 hour after last administration,163.1 mg/dL
same,blood-sugar level decreased compared to the control group,[7]; 2 hours after last administration,159.3 mg/dL
same,blood-sugar level decreased compared to the control group,[7]; 3 hours after last administration,104.2 mg/dL
same,blood-sugar level decreased compared to the control group,[7]; 5 hours after last administration,56.6 mg/dL

# From patent publication US20060135624A1, “Natural compound useful for treating diabetes, its preparation and use” (JINGYU LIANG ET AL, priority 2002, published 2006)
